Measured values published in patent publication US20160145257A1, “SUBSTITUTED XANTHINES AND METHODS OF USE THEREOF” (Hydra Biosciences, Inc., priority 2013, published 2016).
Where a name gives a salt, the structure may show the parent alone.

Molecular target: T1, hTRPC5 (Homo sapiens, UniProt Q9UL62)
T1 construct: expressed in transfected cells; host or cells: HEK293 TREx cells with inducible TRPC5 expression
T1 sequence (Q9UL62 1-973): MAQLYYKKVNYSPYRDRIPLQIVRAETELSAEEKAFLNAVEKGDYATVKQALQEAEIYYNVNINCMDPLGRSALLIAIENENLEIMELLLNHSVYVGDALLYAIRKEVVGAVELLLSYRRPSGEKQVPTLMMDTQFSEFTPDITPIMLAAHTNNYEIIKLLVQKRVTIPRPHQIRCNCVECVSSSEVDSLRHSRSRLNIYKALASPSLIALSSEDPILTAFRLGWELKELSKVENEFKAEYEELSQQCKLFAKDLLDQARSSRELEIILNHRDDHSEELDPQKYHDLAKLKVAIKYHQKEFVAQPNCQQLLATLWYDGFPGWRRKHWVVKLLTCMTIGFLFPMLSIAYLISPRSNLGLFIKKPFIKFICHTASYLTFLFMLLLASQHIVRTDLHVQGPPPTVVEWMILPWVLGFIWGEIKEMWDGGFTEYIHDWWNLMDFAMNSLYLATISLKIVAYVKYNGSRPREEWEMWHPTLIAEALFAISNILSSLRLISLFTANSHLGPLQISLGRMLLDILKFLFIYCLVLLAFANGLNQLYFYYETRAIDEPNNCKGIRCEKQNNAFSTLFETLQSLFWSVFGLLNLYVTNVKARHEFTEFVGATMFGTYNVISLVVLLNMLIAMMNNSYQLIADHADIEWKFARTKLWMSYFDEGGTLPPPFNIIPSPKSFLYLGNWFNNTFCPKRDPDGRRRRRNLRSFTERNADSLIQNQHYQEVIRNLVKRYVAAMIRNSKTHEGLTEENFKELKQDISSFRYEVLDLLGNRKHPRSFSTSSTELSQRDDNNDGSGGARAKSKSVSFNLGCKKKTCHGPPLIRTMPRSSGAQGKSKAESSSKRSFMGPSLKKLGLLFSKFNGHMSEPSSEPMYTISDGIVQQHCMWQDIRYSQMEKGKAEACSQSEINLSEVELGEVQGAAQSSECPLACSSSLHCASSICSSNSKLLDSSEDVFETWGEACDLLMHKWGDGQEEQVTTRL
Experiment: Whole-cell patch clamp, block of LaCl3-activated TRPC5 inward current
Format: cell-based
Conditions: TRPC5-expressing HEK293 TREx cells, 80 μM LaCl3, inward current, IC50 estimated from 5 μM and 500 nM, read-out: hTRPC5 Patch La3+ Inwd (nM) (All Batches)
Method: In certain embodiments, exemplary compounds of Formula I and Formula II include the compounds described in Table 1 and in the Examples. A compound described herein may be tested for its ability to block both inward and outward currents through the TRPC5 channel, e.g., by an assay as described in Example 1. For example, IC50 of a compound of Formula I or Formula II was estimated by testing the compound at 5 μM and 500 nM. […] IC50 for a compound of Formula I or Formula II between 500 nM and 5 μM was similarly estimated. As shown, “A” refers to an IC50<100 nM. “B” refers to an IC50 between 100 nM and 500 nM. “C” refers to an IC50 between 500 nM and 1000 nM. “D” refers to an IC50 between 1 μM and 2 μM. “E” refers to an IC50 between 2 μM and 10 μM. “F” refers to […]. “ND” refers to compounds wherein the IC50 was not determined.
Patch clamp experiments permit the detection of currents through the TRPC5 channel in the cell line described above. In normal whole-cell patch clamp recordings, a glass electrode is brought into contact with a single cell and a high-resistance (gigaohm) seal is established with the cell membrane. The membrane is then ruptured to achieve the whole-cell configuration, permitting control of the voltage of the cell membrane and measurement of currents flowing across the membrane using the amplifier attached to the electrode and resulting in the replacement of cytoplasm with the pipette solution. A perfusion system permits control of the extracellular solution, including the addition of blockers and activators of the current. The current can be activated by including 1.4 μM free Ca^2+ in the pipette (intracellular) solution, and 80 μM LaCl3 in the extracellular solution.
TRPC5 cells were induced 20-48 hours, removed from growth plates, and replated at low density (to attain good single-cell physical separation) on glass coverslips for measurement. In some cases, cells were grown in low density overnight on glass coverslips. Patch clamp recordings were made in the whole-cell mode with a holding potential of −40 mV. Every 5 seconds, a voltage ramp was applied from −120 to +100 mV, 400 ms in duration. Currents elicited were quantified at −80 mV and +80 mV. The internal solution consisted of 140 mM cesium aspartate, 10 mM HEDTA, 2 mM CaCl2, 2.27 mM MgCl2 and 10 mM HEPES, pH 7.2, with 1,400 nM calculated free Ca^2+. The external solution consisted of 150 mM NaCl, 4.5 mM KCl, 1 mM MgCl2, 2 mM CaCl2, 10 mM HEPES, 10 mM glucose, 1 mM EGTA, pH 7.4. Upon addition of LaCl3, TRPC5 current was induced only in TRPC5-expressing cells and not in parental HEK293 TREx cells. Removal of the LaCl3 stimulus causes most of the current to go away. Potential blockers were tested for ability to block both inward and outward currents in the continued presence of LaCl3.
IC50 of a compound of Formula I or Formula II was estimated by testing the compound at 5 μM and 500 nM. […] IC50 for a compound of Formula I or Formula II between 500 nM and 5 μM was similarly estimated.

Row | Compound | IC50 [nM]
1 | CCOC(=O)/C=C/c1nc2c(c(=O)n(C)c(=O)n2C)n1Cc1cccc(Br)c1 [Compound 36] | 2000 to 10000
2 | CCOC(=O)CCc1nc2c(c(=O)n(C)c(=O)n2C)n1Cc1cccc(Br)c1 [Compound 37, ethyl 3-(7-(3-bromobenzyl)-1,3-dimethyl-2,6-dioxo-2,3,6,7-tetrahydro-1H-purin-8-yl)propanoate] | 2000 to 10000
3 | Cn1c(=O)c2c(nc(CC(=O)NCCO)n2Cc2cccc(Br)c2)n(C)c1=O [Compound 38, 2-(7-(3-Bromobenzyl)-1,3-dimethyl-2,6-dioxo-2,3,6,7-tetrahydro-1H-purin-8-yl)-N-(2-hydroxyethyl)acetamide] | 2000 to 10000
4 | Cn1c(=O)c2c(nc(CCO)n2Cc2cccc(Br)c2)n(C)c1=O [Compound 39, 7-(3-Bromobenzyl)-8-(2-hydroxyethyl)-1,3-dimethyl-1H-purine-2,6(3H,7H)-dione] | 2000 to 10000
5 | Cn1c(=O)c2c(nc(CCCl)n2Cc2cccc(Br)c2)n(C)c1=O [Compound 40, 7-(3-Bromobenzyl)-8-(2-chloroethyl)-1,3-dimethyl-1H-purine-2,6(3H,7H)-dione] | 2000 to 10000
6 | C=Cc1nc2c(c(=O)n(C)c(=O)n2C)n1Cc1cccc(Br)c1 [Compound 41, 7-(3-Bromobenzyl)-1,3-dimethyl-8-vinyl-1H-purine-2,6(3H,7H)-dione] | 2000 to 10000
7 | CCCOCCc1nc2c(c(=O)n(C)c(=O)n2C)n1Cc1cccc(Br)c1 [Compound 42, 7-(3-Bromobenzyl)-1,3-dimethyl-8-(2-propoxyethyl)-1H-purine-2,6(3H,7H)-dione] | 1000 to 2000
8 | Cn1c(=O)c2c(nc(CCCO)n2Cc2cccc(Br)c2)n(C)c1=O [Compound 43] | 2000 to 10000
9 | CC1CCN(Cc2nc3c(c(=O)n(C)c(=O)n3C)n2Cc2cccc(Br)c2)CC1 [Compound 44] | 2000 to 10000
10 | Cn1c(=O)c2c(nc(COCc3ccccc3)n2Cc2cccc(Br)c2)n(C)c1=O [Compound 45] | 2000 to 10000
11 | CCCNCCc1nc2c(c(=O)n(C)c(=O)n2C)n1Cc1cccc(Br)c1 [Compound 46] | 2000 to 10000
12 | Cn1c(=O)c2c(nc(CCNCc3ccccc3)n2Cc2cccc(Br)c2)n(C)c1=O [Compound 47, 8-(2-(Benzylamino)ethyl)-7-(3-bromobenzyl)-1,3-dimethyl-1H-purine-2,6(3H,7H)-dione] | 2000 to 10000
13 | CCCN(C)CCc1nc2c(c(=O)n(C)c(=O)n2C)n1Cc1cccc(Br)c1 [Compound 48, 7-(3-Bromobenzyl)-1,3-dimethyl-8-(2-(methyl(propyl)amino)ethyl)-1H-purine-2,6(3H,7H)-dione hydrochloride] | 2000 to 10000
14 | CCCN(CCc1nc2c(c(=O)n(C)c(=O)n2C)n1Cc1cccc(Br)c1)C(C)=O [Compound 49] | 2000 to 10000
15 | CCOC(=O)CCCc1nc2c(c(=O)n(C)c(=O)n2C)n1Cc1cccc(Br)c1 [Compound 50, Ethyl 4-(7-(3-bromobenzyl)-1,3-dimethyl-2,6-dioxo-2,3,6,7-tetrahydro-1H-purin-8-yl)butanoate] | 1000 to 2000
16 | CN1CCN(Cc2nc3c(c(=O)n(C)c(=O)n3C)n2Cc2cccc(Br)c2)CC1 [Compound 51] | 2000 to 10000
17 | Cn1c(=O)c2c(nc(CN3CCOCC3)n2Cc2cccc(Br)c2)n(C)c1=O [Compound 52] | 2000 to 10000
18 | CCNCCCc1nc2c(c(=O)n(C)c(=O)n2C)n1Cc1cccc(Br)c1 [Compound 53] | 2000 to 10000
19 | CCCCOCc1nc2c(c(=O)n(C)c(=O)n2C)n1Cc1cccc(Br)c1 [Compound 55, 7-(3-bromobenzyl)-8-(butoxymethyl)-1,3-dimethyl-1H-purine-2,6(3H,7H)-dione] | 500 to 1000

Now from value to compound:

Row | IC50 [nM] | Compound
20 | 2000 to 10000 | CCOCCCc1nc2c(c(=O)n(C)c(=O)n2C)n1Cc1cccc(Br)c1 [Compound 54, 7-(3-bromobenzyl)-8-(3-ethoxypropyl)-1,3-dimethyl-1H-purine-2,6(3H,7H)-dione]
21 | 1000 to 2000 | CCOCC(C)(C)Sc1nc2c(c(=O)n(C)c(=O)n2C)n1Cc1cccc(Br)c1 [Compound 56, 7-(3-bromobenzyl)-8-(1-ethoxy-2-methylpropan-2-ylthio)-1,3-dimethyl-1H-purine-2,6(3H,7H)-dione]
22 | < 100 | CCOC(=O)c1cccc(Oc2nc3c(c(=O)n(C)c(=O)n3C)n2Cc2cccc(Br)c2)c1 [Compound 57, Ethyl 3-(7-(3-bromobenzyl)-1,3-dimethyl-2,6-dioxo-2,3,6,7-tetrahydro-1H-purin-8-yloxy)benzoate]
23 | 100 to 500 | Cn1c(=O)c2c(nc(SCc3ccccc3F)n2Cc2ccc(Cl)c(Cl)c2)n(C)c1=O [Compound 58]
24 | 1000 to 2000 | Cn1c(=O)c2c(nc(SCCCC#N)n2Cc2cccc(Cl)c2)n(C)c1=O [Compound 62]
25 | 2000 to 10000 | CN(Cc1ccccc1)c1nc2c(c(=O)n(C)c(=O)n2C)n1Cc1ccc(Cl)c(Cl)c1 [Compound 67]
26 | 100 to 500 | Cn1c(=O)c2c(nc(Oc3cccc(C(F)(F)F)c3)n2Cc2ccc(Cl)cc2)n(C)c1=O [Compound 73]
27 | 100 to 500 | CCc1ccccc1Oc1nc2c(c(=O)n(C)c(=O)n2C)n1Cc1ccc(Cl)cc1 [Compound 74]
28 | 2000 to 10000 | Cc1ccc(Oc2nc3c(c(=O)n(C)c(=O)n3C)n2Cc2cccc(Cl)c2)cc1 [Compound 76]
29 | 2000 to 10000 | Cn1c(=O)c2c(nc(CCCN3CCCC3)n2Cc2cccc(Br)c2)n(C)c1=O [Compound 81]
30 | 1000 to 2000 | CCCOCCCc1nc2c(c(=O)n(C)c(=O)n2C)n1Cc1cccc(Br)c1 [Compound 82, 7-(3-bromobenzyl)-1,3-dimethyl-8-(3-propoxypropyl)-1H-purine-2,6(3H,7H)-dione]
31 | 2000 to 10000 | CCOC(=O)C(C)(C)CCc1nc2c(c(=O)n(C)c(=O)n2C)n1Cc1cccc(Br)c1 [Compound 83]
32 | 1000 to 2000 | CCOC(=O)CCC(C)(C)c1nc2c(c(=O)n(C)c(=O)n2C)n1Cc1cccc(Br)c1 [Compound 84]
33 | 100 to 500 | CCOC(=O)CC(C)c1nc2c(c(=O)n(C)c(=O)n2C)n1Cc1cccc(Br)c1 (centres unmarked) [Compound 86]
34 | 500 to 1000 | CCOC(=O)C(C)Cc1nc2c(c(=O)n(C)c(=O)n2C)n1Cc1cccc(Br)c1 (centres unmarked) [Compound 87]
35 | 500 to 1000 | CCCOCCc1nc2c(c(=O)n(C)c(=O)n2C)n1Cc1cccc(OC(F)(F)F)c1 [Compound 88]
36 | 2000 to 10000 | CCCOCCc1nc2c(c(=O)n(C)c(=O)n2C)n1Cc1ccc(OC)cc1 [Compound 89]
37 | 1000 to 2000 | CCCOCCc1nc2c(c(=O)n(C)c(=O)n2C)n1Cc1cccc(C)c1 [Compound 90]
38 | 2000 to 10000 | CCCOCCc1nc2c(c(=O)n(C)c(=O)n2C)n1Cc1cccc(OC)c1 [Compound 91]
